# Results taken from patent US8183364B2, “Substituted porphyrins” (Duke University, priority 2004, dated 2012).
# Like-named read-outs stand apart in the source and are kept apart here.
# Experiments:
# [1] = Mn(III)/Mn(II); 0.1 M NaCl, 0.05 M phosphate buffer, pH 7.8; data from Batinic-Haberle et al 2002; cited from earlier work
# [2] = tested on: SOD-deficient JI132 E. coli; test: Aerobic growth of SOD-deficient E. coli; type: cell-based; conditions: for facilitation of aerobic growth of SOD-deficient E. coli, dependence on concentration: 1-30 μM
# Protocol: (§1) Aerobic growth of E. coli. Bacterial strains of E. coli used were wild type AB1157 (F-thr-1 leu-1 proA2 his-4 argE3 thr-1 lacY1 galK2 rpsL supE44 ara-14 xyl-15 mtl-1 tsx-33) and SOD-deficient JI132 (same as AB1157 plus (sodA::mudPR13)25 (sodB-kan)1-Δ2. Culture media were prepared as follows. M9 medium: 6 g/L Na2HPO4, 3 g/L KH2PO4, 0.5 g/L NaCl, 1 g/L NH4Cl, 2 mM MgSO4, 0.1 mM CaCl2, adjusted to pH 7.4 with NaOH, and supplemented with 0.2% glucose, 3 mg/L each of D-panthotenic acid and thiamine. M9CA medium contained M9 medium plus 0.2% casamino acids. 5-amino acid (5AA) minimal medium contained M9 medium plus 0.5 mM each of threonine, leucine, histidine, proline and arginine (Faulkner et al, J. Biocl. Chem. 269:23471 (1994)).
# (§2) AB 1157 and 31132 were precultured overnight aerobically in M9CA medium at 37° C. and were then diluted to 3×10^7 cells/mL into 5 mL M9CA medium. JI132 was precultured in the presence of 20 μg/mL chloramphenicol and 500 μg/mL kanamycin. When the cells are transferred from M9CA medium to 5AA minimal medium cultures were first centrifuged and washed twice with the 5AA medium before final dilution in it. The centrifugation was conducted at room temperature to avoid temperature shocks. Cultures without and with Mn porphyrins (0.1 to 30 μM) were grown aerobically in 5 mL volume in test tubes in a thermostated orbital shaker (45° angle, 200 rpm) at 37° C.). Rates of growth were followed turbidimetrically at 700 nm to minimize interference from the absorbance of test compounds.
# [3] = data from Batinic-Haberle et al 2002, cited from earlier work; for Rf (compound path/solvent path), metal-free porphyrin (in parenthesis): metal-free ligand of the named Mn porphyrin; for Rf (compound path/solvent path), Mn complex: silica gel TLC, KNO3-saturated H2O/H2O/acetonitrile = 1/1/8
# [4] = pH 7.8, (22 ± 1) °C; data from Batinic-Haberle et al 2002 (MnTE-2-PyP: Inorg. Chem. 40:726 (2001)); cited from earlier work
# [5] = Electrochemistry: cyclic voltammetry of the Mn(III)/Mn(II) redox couple; type: physicochemical
# Protocol: Electrochemistry. Measurements were performed on a CH Instruments Model 600 Voltammetric Analyzer (Spasojevic and Batinic-Haberle, Inorg. Chim. Acta. 317:230-242 (2001), Batinic-Haberle et al, J. Biol. Chem. 273:24521-24528 (1998), Batinic-Haberle et al, Inorg. Chem. 38:4011-4022 (1999)). A three-electrode system in a small volume cell (0.5 mL to 3 mL), with a 3 mm-diameter glassy carbon button working electrode (Bioanalytical Systems), plus the Ag/AgCl reference and Pt auxiliary electrodes was used. Argon-purged solutions contained 0.05 M phosphate buffer, pH 7.8, 0.1 M NaCl, and 0.5 mM metalloporphyrin. The scan rates were 0.01-0.5 V/s, typically 0.1 V/s. The potentials were standardized against the potassium ferrocyanide/ferricyanide (Kolthof and Tomsicek, J. Phys. Chem. 39:945 (1935)) and/or against MnTE-2-PyP^5+ (Spasojevic and Batinic-Haberle, Inorg. Chim. Acta. 317:230-242 (2001), Batinic-Haberle et al, J. Biol. Chem. 273:24521-24528 (1998), Batinic-Haberle et al, Inorg. Chem. 38:4011-4022 (1999)).
# Electrochemistry. All cyclic voltammograms, ascribed to the Mn(III)/Mn(II) redox couple, are reversible. The E1/2 of di-ortho ethylimidazolylporphyrin, MnTDE-2-ImP^5+ is 118 mV more positive than of ortho ethylpyridylporphyrin, MnTE-2-PyP^5+ (+228 mV vs NHE), as a consequence of charge delocalization. A similar difference of 114 mV was seen between their methoxyethyl analogues. Mn porphyrins bearing N-pyridyl substituents of the same length, MnTnBu-PyP^5+ and MnTMOE-2-PyP^5+, have nearly identical E1/2 of +254 and +251 mV vs NHE, which is 26 and 23 mV higher than that of MnTE-PyP^5+.
# wild type AB1157 E. coli = test: Aerobic growth of wild type E. coli (toxicity); type: cell-based
# Protocol: as §1, §2
# [6] = Kinetic salt effect on O2.^− dismutation by cytochrome c assay; type: biochemical
# Protocol: Kinetic salt effect. The dependence of the catalytic rate constant for the O2.^− dismutation upon ionic strength was determined by cytochrome c assay (McCord and Fridovich, J. Biol. Chem. 244:6049 (1969)) in 0.05 M phosphate buffer, pH 7.8 with NaCl ranging from 0 to 0.4 M. In doing this, the effect of ionic strength on the rate of the O2.^−/cytochrome c reaction was corrected for.
# Kinetic salt effect. The effect of the ionic strength (μ) on the catalytic rate constant was assessed using eq which is based on Debye-Huckel relation (Hambright et al, J. Porphyrins Phthalocyanines 7:139-146 (2003)) for the effect of the ionic strength of the solution on the activity coefficient of an ion. log k=log kref+2AzAzBμ^1/2/(1+μ^1/2) The k is the rate constant at any given ionic strength, while kref is the rate constant at μ=0. The A is a collection of physical constants with a value of 0.509 and zA and zB are the charges of the reacting species. The equation predicts a linear plot of log k vs μ^1/2/(1+μ^1/2). Eq assumes a coefficient of 1.0 (βai) for μ^1/2 in the denominator, i.e., the distance of the closest approach, ai to be 3 A and β is a physical constant, […]. It is doubtful whether great significance can be attributed to the ai, thus to the product zAzB (Hambright et al, J. Porphyrins Phthalocyanines 7:139-146 (2003)), especially so in the light of the bulkiness, high charge and solvation shell of the metalloporphyrins. Accounting for the mono- and diprotonated phosphates as the major species at pH 7.8 (pKa=7.2), and the concentration of the NaCl, the ionic strength was calculated using equation μ=½ Σ mizi^2 where mi is the molality and zi the charge of the given ion.
# The slopes of the plots are −6.48 (MnTE-2-PyP^5+), −7.02 (MnTMOE-2-PyP^5+), −7.38 (MnTDMOE-2-ImP^5+), and −4.15 (MnTnBu-2-PyP^5+). As expected (Hambright et al, J. Porphyrins Phthalocyanines 7:139-146 (2003)), when the reactants are ions of opposite charges, the higher the ionic strength of the solution the lower the rate constants, i.e. the slopes are negative. The slopes of the plots indicate clearly the impact of the local dielectric constant on the kcat. The kcat of the most lipophilic compound, MnTnBu-2-PyP^5+ is 40% less sensitive to the changes in ionic strength of the solution than is the kcat of its methoxyethyl analogue, MnTMOE-2-PyP^5+.
# [7] = Catalysis of O2.^− dismutation by pulse radiolysis; type: biochemical; conditions: pulse radiolysis, pH 7.8, (22 ± 1) °C; kcat ±30%
# Protocol: Catalysis of O2.^− dismutation. The catalytic rate constants for the O2.^− dismutation were determined by pulse radiolysis in 0.05 M phosphate buffer (pH 7.8) at (22±1)° C. as previously described (Batinic-Haberle et al, Inorg. Chem. 40:726 (2001)). In the present study 10 mM formate was used as a scavenger for H. atoms and .OH radicals, which leads first to production of CO2.^− radicals and then to O2.^− radicals. This system is known to lead to conversion of all primary radicals of water radiolysis into O2.^−.
# Catalysis of O2.^− dismutation. Pulse radiolysis was used to assess the SOD-like activities of the Mn porphyrins studied. The initial concentration of O2.^− produced by the pulse was about 27 μM, and the concentration of the Mn porphyrin was between 0.5 and 5 μM. The dismutation of O2.^− was followed at 280 nm. The catalytic rate constant was determined from the linear dependence of kobs upon the concentration of the catalyst (Batinic-Haberle et al, Inorg. Chem. 40:726 (2001)). All the new compounds have high O2.^− dismuting ability. The magnitude of the catalysis is due to the interplay of the electron-withdrawing effects of quaternized ortho pyridyl or di-ortho imidazolyl groups, favorable electrostatics, and the solvation of the metal site.
# [8] = Thin-layer chromatography on silica gel (retention factor Rf, lipophilicity); type: physicochemical; conditions: silica gel TLC, KNO3-saturated H2O/H2O/acetonitrile = 1/1/8
# Protocol: Uv/vis spectra of porphyrin ligands and their Mn complexes were taken on a Shimadzu UV-2501-PC spectrophotometer at 25° C. Thin-layer chromatography of ligands and Mn complexes was done using silica gel plates with KNO3satH2O/H2O/acetonitrile=1/1/8.
# Thin-layer chromatography. All new methoxyporphyrins are more lipophilic than MnTE-2-PyP^5+ and MnTDE-2-ImP^5+.
# [9] = Oxidative degradation in the presence of ascorbic acid under aerobic conditions; type: physicochemical; conditions: pH 7.8 (0.05 M tris buffer)
# Protocol: Under these conditions porphyrins underwent oxidative degradation. As previously observed (Batinic-Haberle et al, J. Chem. Soc., Dalton Trans., pgs. 2689-2696 (2002)), those porphyrins that are of more positive E1/2 are stabilized in +2 oxidation state and are less prone to oxidative damage. Accordingly, 27% and 24% of MnTE-2-PyP^5+ and MnTMOE-2-PyP^5+ undergo degradation within 2 hours, but only 2% of MnTM,MOE-2-ImP^5+ and MnTDMOE-2-ImP^5+ and 3% of MnTDE-2-ImP^5+.
SMILES,Metal-centered redox potential E1/2 [1],"aerobic growth of SOD-deficient E. coli ([2]; 5AA minimal medium, 25 μM)","protection of SOD-deficient E. coli ([2]; M9CA medium, 1 μM)","protection of SOD-deficient E. coli ([2]; M9CA medium, 30 μM)","facilitation of aerobic growth of SOD-deficient E. coli, dependence on concentration ([2]; M9CA medium)","Rf (compound path/solvent path), metal-free porphyrin (in parenthesis) [3]","Rf (compound path/solvent path), Mn complex [3]",log kcat for O2^− dismutation [4],also measured
CCC[n+]1ccccc1-c1c2nc(c(-c3cccc[n+]3CCC)c3ccc([n-]3)c(-c3cccc[n+]3CCC)c3nc(c(-c4cccc[n+]4CCC)c4ccc1[n-]4)C=C3)C=C2.[Mn+3] [MnTnPr-2-PyP^5+],+238 mV vs NHE,most effective,low protection,either much higher or near full protection,concentration-dependent manner,0.31,0.20,7.38,
C[n+]1ccccc1-c1c2nc(c(-c3cccc[n+]3C)c3ccc([n-]3)c(-c3cccc[n+]3C)c3nc(c(-c4cccc[n+]4C)c4ccc1[n-]4)C=C3)C=C2.[Mn+3] [MnTM-2-PyP^5+],+220 mV vs NHE,not far behind,low protection,either much higher or near full protection,concentration-dependent manner,0.13,0.09,7.79,
CCCC[n+]1ccccc1-c1c2nc(c(-c3cccc[n+]3CCCC)c3ccc([n-]3)c(-c3cccc[n+]3CCCC)c3nc(c(-c4cccc[n+]4CCCC)c4ccc1[n-]4)C=C3)C=C2.[Mn+3] [MnTnBu-2-PyP^5+],+254 mV vs NHE,,,,,0.46,0.33,7.25,"E1/2 more positive / higher than that of MnTE-2-PyP^5+ ([5]; difference vs MnTE-2-PyP^5+ (+228 mV vs NHE)): 26 mV; toxicity to wild type E. coli (wild type AB1157 E. coli; M9CA medium, 30 μM (up to 30 μM)): only marginal toxicity; concentration at which toxicity on the parental (wild type) strain is exerted / becomes observable (wild type AB1157 E. coli; M9CA medium, range 0.1 to 30 μM): 30 µM; slope of log kcat vs μ^1/2/(1+μ^1/2) ([6]; 0.05 M phosphate buffer, pH 7.8, 0-0.4 M NaCl): −4.15; kcat less sensitive to changes in ionic strength than MnTMOE-2-PyP^5+ ([6]; vs MnTMOE-2-PyP^5+): 40%; aerobic growth of SOD-deficient E. coli ([2]; 5AA minimal medium, 3 μM): nearly as effective; aerobic growth of SOD-deficient E. coli ([2]; M9CA medium, 1 and 3 μM): less effective; aerobic growth of SOD-deficient E. coli ([2]; M9CA medium, 10 and 30 μM): most effective"
CCCCCCCC[n+]1ccccc1-c1c2nc(c(-c3cccc[n+]3CCCCCCCC)c3ccc([nH]3)c(-c3cccc[n+]3CCCCCCCC)c3nc(c(-c4cccc[n+]4CCCCCCCC)c4ccc1[nH]4)C=C3)C=C2 [metal-free n-octyl],,,,,,,,,toxicity of metal-free vs Mn(III) complex (wild type AB1157 E. coli; separate experiment): equally toxic
"COCCn1cc[n+](C)c1-c1c2nc(c(-c3n(CCOC)cc[n+]3C)c3ccc([n-]3)c(-c3n(CCOC)cc[n+]3C)c3nc(c(-c4n(CCOC)cc[n+]4C)c4ccc1[n-]4)C=C3)C=C2.[Mn+3] [MnTM,MOE-2-ImP^5+, Mn(III) tetrakis 5,10,15,20-tetrakis[N-methyl-N′-(2-methoxyethyl)imidazolium-2-yl]porphyrin]",,,,,,,,,"Metal-centered redox potential E1/2 ([5]; Mn(III)/Mn(II), 0.1 M NaCl, 0.05 M phosphate buffer, pH 7.8, ±3 mV): +356 mV vs NHE; log kcat for O2^− dismutation [7]: 7.98; Rf (compound path/solvent path), metal-free porphyrin (in parenthesis) ([8]; metal-free ligand of the named Mn porphyrin): 0.17; Rf (compound path/solvent path), Mn complex [8]: 0.15; degradation within 2 hours [9]: 2%"
